Common to all, as to format: cell-based
The subject of assay [1] is SDMA (PRMT5 activity) in HAP1 MTAP-intact cell line. Nature of the assay: SDMA in-cell western assay, HAP1 MTAP-intact. As to conditions: SDMA in-cell western, HAP1 MTAP-intact cells, 24 hours compound incubation. The protocol: (§1) The SAM-cooperative PRMT5 inhibitor, GSK3326595, was sourced from SelleckChem and maintained as a 10 mM DMSO stock. All test compounds are maintained as 10 mM DMSO stocks
(§2) On Day 0, MTAP-intact or MTAP-deleted cells are seeded in a 384-well plate, and incubated in a humidified, 5% CO2 tissue culture incubator for 16-24 hours. On Day 1, the test compounds are dispensed to wells at defined concentrations using a Tecan D300e digital dispenser (n=4), and the volume of DMSO is normalized to highest class volume. Each plate includes wells dosed with defined concentrations of GSK33226595 as a plate control. The compounds are incubated with cells for 24 hours in a humidified, 5% CO2 tissue culture incubator.
(§3) On Day 2, the compound-treated cells are fixed with a final concentration of 4% formaldehyde. The cells are then washed/permeabilized with 1×PBS+0.1% Triton X-100, and then blocked with 5% goat serum/1×TBS.
(§4) The cells are washed with 1×PBS+0.1% Triton X-100, and then washed again with ddH20. The plates are then imaged using a NIR fluorescent imager (LiCor Odyssey).
(§5) For data analysis, the SDMA signal is normalized to the DRAQ5 signal. Assay background is determined by the signal from wells treated with 1 μM GSK3326595, and subtracted from every well. The data are plotted as % of the DMSO control wells for the MTAP-intact and the MTAP-deleted cell lines independently, and fitted to the 4-parameter logistic (4-PL) Hill equation with maximal effect constrained to 0. The fit was performed using GraphPad Prism or the default IC50 fitting procedure in Dotmatics Studies 5.4 as part of a customized data analysis protocol.

The subject of assay [2] is HAP1 MTAP-deleted cell line. Nature of the assay: Viability assay (CellTiter-Glo), HAP1 MTAP-deleted. The following applies: HAP1 MTAP-deleted cells, 7 days. Here is the method: All test compounds are maintained as 10 mM DMSO stocks.
On Day 0, MTAP-intact and MTAP-deleted cells are seeded in a 96-well plate, and incubated in a humidified, 5 or 10% CO2 tissue culture incubator for 16-24 hours. On Day 1, the test compounds are dispensed to wells at defined concentrations using a Tecan D300e digital dispenser (n=3), and the volume of DMSO is normalized to highest class volume (0.2%). The compound-treated plates are incubated for 7 days in a humidified, 5 or 10% CO2 tissue culture incubator.
On Day 7, the plates are removed from the tissue culture incubator and allowed to equilibrate to room temperature. Then either a ½% volume CellTiter-Glo Luminescent Cell Viability Assay reagent (Promega G7572) is added to each well, or the media is removed from every well and a 1:3 dilution of CellTiter-Glo 2.0 Cell Viability Assay reagent (Promega G9241) in 1×PBS is added. Ten minutes after addition, the luminescent signal is detected by an Envision plate reader. The data are plotted as % of the DMSO control wells for the MTAP-intact and the MTAP-deleted cell lines independently, and fitted to the 4-parameter logistic (4-PL) Hill equation with maximal effect constrained to 0. The fit was performed using GraphPad Prism or the default IC50 fitting procedure in Dotmatics Studies 5.4 as part of a customized data analysis protocol.

Assay [3] relates to SDMA (PRMT5 activity) in HAP1 MTAP-deleted cell line. Description: SDMA in-cell western assay, HAP1 MTAP-deleted. As to conditions: for IC50 / IC90: SDMA in-cell western, HAP1 MTAP-deleted cells, 24 hours compound incubation; for Hap1 MTAP intact/deleted ratio: ratio of SDMA IC50 in HAP1 MTAP-intact to HAP1 MTAP-deleted cell line. Here is the method:
as §1, §2, §3, §4, §5

Some results are limits rather than exact numbers.

Turning to `CCc1cc(NC(=O)C(=O)N2C[C@@H](C)CC[C@@H]2c2cccc(OCC3CCCN3C)c2)cnc1N` (relative stereo) [Compound 69, N-(6-amino-5-ethyl-3-pyridyl)-2-oxo-2-[(2R,5S)-5-methyl-2-[3-[[rel-(2R)-1-methylpyrrolidin-2-yl]methoxy]phenyl]-1-piperidyl]acetamide], the IC50 in assay [1] (Homo sapiens, HAP1, 24 h) was > 50 nM; in assay [2] (Homo sapiens, 168 h), < 100 nM; in assay [3] (Homo sapiens) it was < 5 nM. The IC90 in assay [3] (Homo sapiens) is < 75 nM. In assay [3], the “Hap1 MTAP intact/deleted ratio” value is given as “A (“A” indicates an IC50 ratio greater than or equal to 30 fold)”.
With `CCc1cc(NC(=O)C(=O)N2C[C@@H](C)CC[C@@H]2c2ccc3sc([C@@H]4CN(C)C(C)(C)C4)nc3c2)cnc1N` (single isomer, unassigned) [Compound 56], the IC50 in assay [1] (Homo sapiens, HAP1, 24 h) was 5 to 50 nM; in assay [2] (Homo sapiens, 168 h) it was < 100 nM; in assay [3] (Homo sapiens), < 5 nM. The IC90 in assay [3] (Homo sapiens) was < 75 nM. Further, in assay [3], the “Hap1 MTAP intact/deleted ratio” value is “B (“B” indicates an IC50 ratio greater than or equal to 15 fold but lower than 30 fold)”.
For `COc1ncc(NC(=O)C(=O)N2CCCC[C@@H]2c2ccc3sc(C4CCN(C)CC4)nc3c2)cc1C(N)=O` [Compound 29, 2-methoxy-5-(2-(2-(2-(1-methylpiperidin-4-yl)benzo[d]thiazol-5-yl)piperidin-1-yl)-2-oxoacetamido)nicotinamide] the same measures were > 50 nM, 100 to 1000 nM, 5 to 50 nM, > 125 nM and “A (“A” indicates an IC50 ratio greater than or equal to 30 fold)”.
For `COc1ncc(NC(=O)C(=O)N2C[C@@H](C)CC[C@@H]2c2ccc3sc(C4=CCN(C)CC4)nc3c2)cc1C(N)=O` [Compound 83, 2-methoxy-5-(2-((2R,5S)-5-methyl-2-(2-(1-methyl-1,2,3,6-tetrahydropyridin-4-yl)benzo[d]thiazol-5-yl)piperidin-1-yl)-2-oxoacetamido)nicotinamide] the same measures were > 50 nM, < 100 nM, < 5 nM, < 75 nM and “A (“A” indicates an IC50 ratio greater than or equal to 30 fold)”.
Take `CCc1cc(NC(=O)C(=O)N2C[C@@H](C)CC[C@@H]2c2ccc3cn(C4CCN(C)C(C)(C)C4)nc3c2)cnc1N` (single isomer, unassigned) [Compound 115]: the IC50 is 5 to 50 nM in assay [1], < 100 nM in assay [2] and < 5 nM in assay [3]. The IC90 in assay [3] was < 75 nM.
For `COc1ncc(NC(=O)C(=O)N2C[C@@H](C)CC[C@@H]2c2ccc3sc(C45CC(N(C)C)(C4)C5)nc3c2)cc1C(N)=O` [Compound 86], the IC50 in assay [1] (Homo sapiens, HAP1, 24 h) was > 50 nM; in assay [2] (Homo sapiens, 168 h) it was < 100 nM; in assay [3] (Homo sapiens), 5 to 50 nM. In addition, the IC90 in assay [3] (Homo sapiens) was > 125 nM. Moreover, in assay [3], the “Hap1 MTAP intact/deleted ratio” value was “A (“A” indicates an IC50 ratio greater than or equal to 30 fold)”.
For `CCc1cc(NC(=O)C(=O)N2C[C@@H](C)CC[C@@H]2c2cccc(OC3CCN(C)C3)c2)cnc1N` (mixture of isomers) [Compound 39, N-(6-amino-5-ethylpyridin-3-yl)-2-((2R,5S)-5-methyl-2-(3-((1-methylpyrrolidin-3-yl)oxy)phenyl)piperidin-1-yl)-2-oxoacetamide] the same measures were > 50 nM, < 100 nM, 5 to 50 nM, 75 to 125 nM and “A (“A” indicates an IC50 ratio greater than or equal to 30 fold)”.
For `COc1ncc(NC(=O)C(=O)N2C[C@@H](C)CC[C@@H]2c2ccc3sc([C@H]4C[C@@H](N(C)C)C4)nc3c2)cc1C(N)=O` (single isomer, unassigned) [Compound 24] the same measures were > 50 nM, < 100 nM, < 5 nM, < 75 nM and “A (“A” indicates an IC50 ratio greater than or equal to 30 fold)”.
With `C[C@H]1CC[C@H](c2ccc3scnc3c2)N(C(=O)C(=O)Nc2cnc(N)c(I)c2)C1` [Compound 51, N-(6-amino-5-iodopyridin-3-yl)-2-((2R,5S)-2-(benzo[d]thiazol-5-yl)-5-methylpiperidin-1-yl)-2-oxoacetamide], the IC50 in assay [1] (Homo sapiens) was > 50 nM; in assay [2] (Homo sapiens, 168 h) it was 100 to 1000 nM; in assay [3] (Homo sapiens) it was < 5 nM. Also, in assay [3] (Homo sapiens), the IC90 lay within 75 to 125 nM. Moreover, the “Hap1 MTAP intact/deleted ratio” value in assay [3] was “A (“A” indicates an IC50 ratio greater than or equal to 30 fold)”.
Consider `COc1ncc(NC(=O)C(=O)N2C[C@@H](C)CC[C@@H]2c2cccc(OC[C@@H](C)N(C)C)c2)cc1C(N)=O` [Compound 49, 5-(2-((2R,5S)-2-(3-((R)-2-(dimethylamino)propoxy)phenyl)-5-methylpiperidin-1-yl)-2-oxoacetamido)-2-methoxynicotinamide], for which the IC50 in assay [1] (Homo sapiens, HAP1, 24 h) is > 50 nM; in assay [2] (Homo sapiens, 168 h) it was 100 to 1000 nM; in assay [3] (Homo sapiens) it was < 5 nM. Also, the IC90 in assay [3] (Homo sapiens) is < 75 nM. In addition, in assay [3], the “Hap1 MTAP intact/deleted ratio” value is recorded as “A (“A” indicates an IC50 ratio greater than or equal to 30 fold)”.
Regarding `COc1ncc(NC(=O)C(=O)N2C[C@@H](C)CC[C@@H]2c2ccc3sc(CC4(C)CCN(C)CC4)nc3c2)cc1C(N)=O` [Compound 22, 5-(2-((2R,5S)-2-(2-((1,4-dimethylpiperidin-4-yl)methyl)benzo[d]thiazol-5-yl)-5-methylpiperidin-1-yl)-2-oxoacetamido)-2-methoxynicotinamide], the IC50 in assay [1] (Homo sapiens, HAP1, 24 h) was > 50 nM; in assay [2] (Homo sapiens, 168 h), < 100 nM; in assay [3] (Homo sapiens) it was < 5 nM. Besides, the IC90 in assay [3] (Homo sapiens) is < 75 nM. Further, the “Hap1 MTAP intact/deleted ratio” value in assay [3] is on record as “B (“B” indicates an IC50 ratio greater than or equal to 15 fold but lower than 30 fold)”.
With `CCc1cc(NC(=O)C(=O)N2C[C@@H](C)CC[C@@H]2c2ccc3sc(CC(C)(C)N(C)C)nc3c2)cnc1N` [Compound 89, N-(6-amino-5-ethylpyridin-3-yl)-2-((2R,5S)-2-(2-(2-(dimethylamino)-2-methylpropyl)benzo[d]thiazol-5-yl)-5-methylpiperidin-1-yl)-2-oxoacetamide], the IC50 in assay [1] (Homo sapiens, HAP1, 24 h) is > 50 nM; in assay [2] (Homo sapiens, 168 h) it was < 100 nM; in assay [3] (Homo sapiens), < 5 nM. For the same compound, in assay [3] (Homo sapiens), the IC90 is < 75 nM. For the same compound, in assay [3], the “Hap1 MTAP intact/deleted ratio” value was “A (“A” indicates an IC50 ratio greater than or equal to 30 fold)”.
For `CCc1cc(NC(=O)C(=O)N2C[C@@H](C)CC[C@@H]2c2ccc3cn([C@H]4CCN(C)C[C@H]4C)nc3c2)cnc1N` [Compound 42] the same measures were > 50 nM, < 100 nM, < 5 nM, < 75 nM and “B (“B” indicates an IC50 ratio greater than or equal to 15 fold but lower than 30 fold)”.
Turning to `CCc1cc(NC(=O)C(=O)N2C[C@@H](C)CC[C@@H]2c2ccc3sc([C@@H]4C[C@@H]5CC(F)(F)C[C@H](C4)N5C)nc3c2)cnc1N` [Compound 91, N-(6-amino-5-ethylpyridin-3-yl)-2-((2R,5S)-2-(2-(7,7-difluoro-9-methyl-9-azabicyclo[3.3.1]nonan-3-yl)benzo[d]thiazol-5-yl)-5-methylpiperidin-1-yl)-2-oxoacetamide], the IC50 in assay [1] (Homo sapiens) is > 50 nM; in assay [2] (Homo sapiens, 168 h), < 100 nM; in assay [3] (Homo sapiens) it was < 5 nM. In assay [3] (Homo sapiens), the IC90 was < 75 nM. Moreover, the “Hap1 MTAP intact/deleted ratio” value in assay [3] is reported as “A (“A” indicates an IC50 ratio greater than or equal to 30 fold)”.

The record behind these values is patent US20250171432A1, “COMPOUNDS AND METHODS OF USE” (Tango Therapeutics, Inc., priority 2022, published 2025).
